According to article PMC4391747 (Science translational medicine, 2012):

Columns and labels:
[1] = Solubility of MIV-150 in ring polymer; assay type: physicochemical
[2] = rat, in vivo; cited from earlier work

Compound: CCC(=O)c1ccc(F)c([C@@H]2C[C@@H]2NC(=O)Nc2ccc(C#N)cn2)c1O [MIV-150]
- Solubility of MIV-150 in EVA-40 ([1]; DSC): partially soluble
- Solubility of MIV-150 in silicone ([1]; DSC of formulated ring segments and release studies with micronized MIV-150): insoluble
- Time within which absorbed MIV-150 is cleared [2]: ≤ 12 h
